The results in this text go back to ChEMBL document CHEMBL1123022, “S-(nitrocarbobenzoxy)glutathiones: potent competitive inhibitors of mammalian glyoxalase II” (J Med Chem, 1985).

Experiment [1] has as its target Hydroxyacylglutathione hydrolase, mitochondrial (Rattus norvegicus, UniProt O35952). Kind of experiment: Binding affinity towards rat liver glyoxalase II.
Experiment [2] concerns the target Hydroxyacylglutathione hydrolase, mitochondrial (Rattus norvegicus) (UniProt O35952). Kind of experiment: […] inhibitory activity against rat liver glyoxalase II.
Experiment [3] deals with T1, Lactoylglutathione lyase (Rattus norvegicus) (UniProt Q6P7Q4).
T1 sequence (whole entry): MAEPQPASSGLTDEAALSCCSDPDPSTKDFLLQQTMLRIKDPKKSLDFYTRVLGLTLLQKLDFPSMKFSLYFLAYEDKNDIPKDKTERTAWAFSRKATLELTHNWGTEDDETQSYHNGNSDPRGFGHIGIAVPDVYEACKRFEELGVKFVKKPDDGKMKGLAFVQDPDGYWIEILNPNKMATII
The experiment is described as follows: […] inhibitory activity against rat liver glyoxalase I.

The term Ki denotes the dissociation constant of the complex between target and ligand, obtained from inhibition or displacement.

`NC(CCC(=O)NC(CSC(=O)OCc1ccccc1[N+](=O)[O-])C(=O)NCC(=O)O)C(=O)O` (centres undefined) had a Ki in experiment [1] of 15 µM. In addition, in experiment [2], the [I] 0.5 came out at 20 µM.
For the molecule `NC(CCC(=O)NC(CSC(=O)OCc1ccc([N+](=O)[O-])cc1)C(=O)NCC(=O)O)C(=O)O` (centres undefined), the affinity in experiment [1], expressed as Ki, was 6.5 µM. The figures for the [I] 0.5 in experiment [3] and in experiment [2] were 925 µM and 12 µM, respectively.
As for `NC(CCC(=O)NC(CSC(=O)OCc1ccccc1)C(=O)NCC(=O)O)C(=O)O` (centres undefined), the inhibitory constant (Ki) in experiment [1] amounted to 65 µM. Further, the [I] 0.5 in experiment [2] was determined as 165 µM.
In turn, `NC(CCC(=O)NC(CSC(=O)OCc1cccc([N+](=O)[O-])c1)C(=O)NCC(=O)O)C(=O)O` (centres undefined) displayed a Ki in experiment [1] of 9 µM. This molecule registered a [I] 0.5 in experiment [2] of 15 µM.
